From ChEMBL document CHEMBL1201862, “PubChem BioAssay data set” (2004)
One block for each compound: values may come before it. Calls of active or inactive are those of the source.

Tests used:
[1] = SK-MEL-5 parental cell viability reduction, dose response, orthogonal assay for MITF inhibitor project, CellTiter-Glo luminescence, dry powder, set 8 (AID 651586); assay type: functional, cell-based
[2] = SK-MEL-5 parental line viability, dose response, MITF inhibitor project, cell-based, CellTiter-Glo, dry powder, set 6 (AID 624429); assay type: functional
[3] = target: Dual specificity protein phosphatase 3 (Homo sapiens, UniProt P51452); assay: VHR1 phosphatase inhibitors, primary screen, biochemical, absorbance, uHTS (AID 1654)
[4] = target: Intestinal-type alkaline phosphatase (Homo sapiens, UniProt P09923); assay: activation of human intestinal alkaline phosphatase – biochemical, dose response (AID 488873); assay type: functional
[5] = growth suppression of PTEN-null colon cells, dose response, cell-based, HCT116 PTEN knockout (AID 1047); assay type: functional;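 further: HCT116 colon tumor cells with PTEN knocked out; cells exposed to compound for 60 hours before readout; potency for loss of cell viability measured by luminescence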
[6] = target: T1, Heat shock factor protein 1 (Mus musculus, UniProt P38532); assay: HSF1 potentiators in luciferase reporter cells, confirmation, cell-based, NIH3T3, luminescence, dose retest (AID 435004); assay type: functional;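 further: stress induced by proteasome inhibitor MG132 added 30 min after compound; luciferase reporter driven by HSF1 response element in NIH3T3 cells; actives raise luminescence as potentiators of the MG132 stress response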
T1 sequence (P38532 whole entry): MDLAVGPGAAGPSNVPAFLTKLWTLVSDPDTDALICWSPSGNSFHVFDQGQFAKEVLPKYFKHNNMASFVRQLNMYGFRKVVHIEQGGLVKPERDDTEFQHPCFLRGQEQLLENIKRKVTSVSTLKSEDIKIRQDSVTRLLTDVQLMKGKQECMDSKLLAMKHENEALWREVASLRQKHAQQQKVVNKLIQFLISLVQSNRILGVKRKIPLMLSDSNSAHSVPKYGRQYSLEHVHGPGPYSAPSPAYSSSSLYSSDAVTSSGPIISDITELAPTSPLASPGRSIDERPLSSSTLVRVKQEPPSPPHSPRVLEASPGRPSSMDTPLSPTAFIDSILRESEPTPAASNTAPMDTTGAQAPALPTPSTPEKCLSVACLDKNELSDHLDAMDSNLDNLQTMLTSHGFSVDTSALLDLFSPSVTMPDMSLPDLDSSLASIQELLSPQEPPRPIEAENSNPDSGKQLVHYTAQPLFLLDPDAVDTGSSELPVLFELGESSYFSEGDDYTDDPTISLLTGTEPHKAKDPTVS

[7] = target: T2, Apoptotic protease-activating factor 1 (Homo sapiens, UniProt O14727); assay type: functional
T2 sequence (O14727 whole entry): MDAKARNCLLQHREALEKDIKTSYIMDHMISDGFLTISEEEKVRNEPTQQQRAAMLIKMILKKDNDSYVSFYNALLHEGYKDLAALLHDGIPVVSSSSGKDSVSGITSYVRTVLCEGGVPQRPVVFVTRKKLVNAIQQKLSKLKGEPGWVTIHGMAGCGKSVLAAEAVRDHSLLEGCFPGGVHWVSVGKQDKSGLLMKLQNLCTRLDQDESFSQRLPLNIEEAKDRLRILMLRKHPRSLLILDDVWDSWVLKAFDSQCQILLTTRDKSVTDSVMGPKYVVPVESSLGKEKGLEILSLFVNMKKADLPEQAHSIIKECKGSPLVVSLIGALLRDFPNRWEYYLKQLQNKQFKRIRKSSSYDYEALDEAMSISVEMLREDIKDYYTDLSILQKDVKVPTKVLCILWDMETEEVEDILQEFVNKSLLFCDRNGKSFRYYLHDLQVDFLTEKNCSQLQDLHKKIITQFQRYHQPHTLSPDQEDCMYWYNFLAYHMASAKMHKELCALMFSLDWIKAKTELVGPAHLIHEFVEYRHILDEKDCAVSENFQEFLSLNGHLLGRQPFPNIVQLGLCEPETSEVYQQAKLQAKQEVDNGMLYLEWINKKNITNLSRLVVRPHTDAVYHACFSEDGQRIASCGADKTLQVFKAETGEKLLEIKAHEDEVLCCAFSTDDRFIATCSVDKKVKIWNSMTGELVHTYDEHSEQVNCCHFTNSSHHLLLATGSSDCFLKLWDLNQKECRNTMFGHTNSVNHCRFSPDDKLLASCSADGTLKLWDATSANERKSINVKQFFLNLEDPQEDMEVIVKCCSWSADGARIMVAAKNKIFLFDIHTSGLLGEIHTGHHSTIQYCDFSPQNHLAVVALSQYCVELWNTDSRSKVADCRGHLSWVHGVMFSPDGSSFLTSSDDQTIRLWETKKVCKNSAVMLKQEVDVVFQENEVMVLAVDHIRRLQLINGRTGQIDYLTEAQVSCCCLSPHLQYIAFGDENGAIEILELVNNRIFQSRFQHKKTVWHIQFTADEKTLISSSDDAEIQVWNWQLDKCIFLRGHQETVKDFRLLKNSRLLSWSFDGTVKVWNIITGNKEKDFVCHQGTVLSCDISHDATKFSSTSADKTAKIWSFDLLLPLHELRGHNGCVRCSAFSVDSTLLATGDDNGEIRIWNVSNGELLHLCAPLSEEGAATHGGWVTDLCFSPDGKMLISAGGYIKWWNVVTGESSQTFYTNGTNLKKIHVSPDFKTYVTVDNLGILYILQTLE

[8] = target: RAC-gamma serine/threonine-protein kinase (Homo sapiens, UniProt Q9Y243); assay type: functional
[9] = target: Tyrosine-protein kinase receptor TYRO3 (Homo sapiens, UniProt Q06418); assay type: functional;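 further: TYRO3 value obtained as one member of a kinome-wide profiling panel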
[10] = target: MAP kinase-activated protein kinase 5 (Homo sapiens, UniProt Q8IW41); assay type: functional;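 further: measured as one member of a kinome panel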
[11] = target: Mast/stem cell growth factor receptor Kit (Homo sapiens, UniProt P10721); assay type: functional;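 further: KIT entry within a kinase panel assay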
[12] = target: Tyrosine-protein kinase Blk (Homo sapiens, UniProt P51451); assay type: functional;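 further: obtained as one member of a kinome-wide kinase assay panel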
[13] = target: Protein kinase C gamma type (Homo sapiens, UniProt P05129); assay type: functional
[14] = target: Mitogen-activated protein kinase kinase kinase kinase 2 (Homo sapiens, UniProt Q12851); assay type: functional;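 further: measured as one member of a kinome-wide kinase panel, with MAP4K2 as the panel entry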
[15] = target: Mitogen-activated protein kinase 1 (Homo sapiens, UniProt P28482); assay type: functional
[16] = target: Serine/threonine-protein kinase Nek4 (Homo sapiens, UniProt P51957); assay type: functional
[17] = target: 3-phosphoinositide-dependent protein kinase 1 (Homo sapiens, UniProt O15530); assay type: functional;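 further: value comes from the Navigating the Kinome panel, PDPK1 member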
[18] = target: Serine/threonine-protein kinase DCLK1 (Homo sapiens, UniProt O15075); assay type: functional;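 further: affinity for DCLK1 (listed as DCAMKL1) measured as one member of a kinome-wide kinase profiling panel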
[19] = target: Fibroblast growth factor receptor 3 (Homo sapiens, UniProt P22607); assay type: functional
[20] = target: Serine/threonine-protein kinase BRSK1 (Homo sapiens, UniProt Q8TDC3); assay type: functional;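 further: measured within a kinome-wide kinase panel, with the target listed as KIAA1811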
[21] = target: Calcium/calmodulin-dependent protein kinase type II subunit alpha (Homo sapiens, UniProt Q9UQM7); assay: Navigating the Kinome. Panel member name: CAMK2A; assay type: functional

Chain of Fibroblast growth factor receptor 3 (P22607 whole entry): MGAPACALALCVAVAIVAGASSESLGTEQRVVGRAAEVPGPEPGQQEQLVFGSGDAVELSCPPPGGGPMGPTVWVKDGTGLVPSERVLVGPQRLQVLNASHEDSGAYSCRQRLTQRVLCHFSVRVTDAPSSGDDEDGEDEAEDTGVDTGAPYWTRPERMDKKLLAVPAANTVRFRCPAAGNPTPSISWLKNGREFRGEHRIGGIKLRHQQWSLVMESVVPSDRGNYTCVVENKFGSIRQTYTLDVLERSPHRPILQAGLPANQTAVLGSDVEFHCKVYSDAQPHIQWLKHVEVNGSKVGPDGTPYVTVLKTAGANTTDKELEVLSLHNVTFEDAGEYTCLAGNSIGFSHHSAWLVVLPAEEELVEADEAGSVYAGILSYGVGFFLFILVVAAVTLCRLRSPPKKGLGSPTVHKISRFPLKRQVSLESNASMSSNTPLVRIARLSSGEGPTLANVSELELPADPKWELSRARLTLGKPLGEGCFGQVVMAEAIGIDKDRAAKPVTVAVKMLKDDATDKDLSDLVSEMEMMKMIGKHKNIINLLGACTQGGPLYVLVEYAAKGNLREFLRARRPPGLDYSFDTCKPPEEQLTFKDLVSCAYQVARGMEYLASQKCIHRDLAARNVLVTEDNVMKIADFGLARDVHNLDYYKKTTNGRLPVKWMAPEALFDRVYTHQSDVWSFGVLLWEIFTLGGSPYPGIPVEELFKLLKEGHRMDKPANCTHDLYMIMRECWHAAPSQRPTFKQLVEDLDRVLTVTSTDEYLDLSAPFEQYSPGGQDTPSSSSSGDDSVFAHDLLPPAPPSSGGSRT
Chain of Serine/threonine-protein kinase BRSK1 (Q8TDC3 whole entry): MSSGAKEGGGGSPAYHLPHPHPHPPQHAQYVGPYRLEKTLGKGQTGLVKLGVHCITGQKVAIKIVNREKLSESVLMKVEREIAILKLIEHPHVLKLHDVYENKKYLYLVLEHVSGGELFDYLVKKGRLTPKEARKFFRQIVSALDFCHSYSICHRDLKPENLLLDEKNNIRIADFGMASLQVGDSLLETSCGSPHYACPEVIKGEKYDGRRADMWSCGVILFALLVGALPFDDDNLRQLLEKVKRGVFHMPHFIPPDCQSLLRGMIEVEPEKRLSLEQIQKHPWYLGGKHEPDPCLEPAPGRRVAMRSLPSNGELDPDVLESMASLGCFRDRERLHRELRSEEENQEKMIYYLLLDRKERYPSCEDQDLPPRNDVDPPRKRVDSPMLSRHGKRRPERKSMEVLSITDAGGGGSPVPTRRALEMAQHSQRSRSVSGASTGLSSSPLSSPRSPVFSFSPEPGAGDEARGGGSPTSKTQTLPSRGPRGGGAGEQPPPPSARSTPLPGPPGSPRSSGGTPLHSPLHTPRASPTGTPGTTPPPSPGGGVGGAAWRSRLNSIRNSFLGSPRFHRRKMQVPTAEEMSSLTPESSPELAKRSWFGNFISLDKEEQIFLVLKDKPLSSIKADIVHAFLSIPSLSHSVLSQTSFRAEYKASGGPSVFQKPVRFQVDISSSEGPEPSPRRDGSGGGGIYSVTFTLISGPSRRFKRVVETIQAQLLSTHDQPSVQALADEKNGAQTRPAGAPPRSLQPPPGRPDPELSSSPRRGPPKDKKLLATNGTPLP
Chain of Tyrosine-protein kinase receptor TYRO3 (Q06418 whole entry): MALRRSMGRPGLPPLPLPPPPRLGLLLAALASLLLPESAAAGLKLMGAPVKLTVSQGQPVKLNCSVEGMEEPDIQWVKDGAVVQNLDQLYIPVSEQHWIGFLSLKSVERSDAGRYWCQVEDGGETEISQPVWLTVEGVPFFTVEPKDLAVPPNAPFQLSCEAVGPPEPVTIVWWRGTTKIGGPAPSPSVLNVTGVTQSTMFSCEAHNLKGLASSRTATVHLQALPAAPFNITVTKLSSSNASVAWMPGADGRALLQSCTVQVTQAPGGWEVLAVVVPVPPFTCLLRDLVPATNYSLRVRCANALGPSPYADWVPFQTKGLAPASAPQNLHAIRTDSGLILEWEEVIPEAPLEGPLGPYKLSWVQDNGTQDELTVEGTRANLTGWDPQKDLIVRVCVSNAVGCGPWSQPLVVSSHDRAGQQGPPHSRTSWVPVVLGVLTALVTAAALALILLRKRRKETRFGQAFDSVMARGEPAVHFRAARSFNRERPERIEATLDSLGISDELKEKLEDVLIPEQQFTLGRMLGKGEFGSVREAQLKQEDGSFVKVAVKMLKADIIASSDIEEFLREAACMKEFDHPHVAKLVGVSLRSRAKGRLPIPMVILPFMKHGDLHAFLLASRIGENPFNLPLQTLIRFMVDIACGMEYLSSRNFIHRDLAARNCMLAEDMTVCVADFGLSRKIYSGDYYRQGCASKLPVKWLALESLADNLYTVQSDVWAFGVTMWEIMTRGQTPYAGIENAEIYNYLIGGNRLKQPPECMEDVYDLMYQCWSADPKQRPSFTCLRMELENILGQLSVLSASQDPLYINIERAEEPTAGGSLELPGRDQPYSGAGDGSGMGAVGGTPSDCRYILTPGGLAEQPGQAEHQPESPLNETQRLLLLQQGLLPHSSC
Chain of Serine/threonine-protein kinase DCLK1 (O15075 whole entry): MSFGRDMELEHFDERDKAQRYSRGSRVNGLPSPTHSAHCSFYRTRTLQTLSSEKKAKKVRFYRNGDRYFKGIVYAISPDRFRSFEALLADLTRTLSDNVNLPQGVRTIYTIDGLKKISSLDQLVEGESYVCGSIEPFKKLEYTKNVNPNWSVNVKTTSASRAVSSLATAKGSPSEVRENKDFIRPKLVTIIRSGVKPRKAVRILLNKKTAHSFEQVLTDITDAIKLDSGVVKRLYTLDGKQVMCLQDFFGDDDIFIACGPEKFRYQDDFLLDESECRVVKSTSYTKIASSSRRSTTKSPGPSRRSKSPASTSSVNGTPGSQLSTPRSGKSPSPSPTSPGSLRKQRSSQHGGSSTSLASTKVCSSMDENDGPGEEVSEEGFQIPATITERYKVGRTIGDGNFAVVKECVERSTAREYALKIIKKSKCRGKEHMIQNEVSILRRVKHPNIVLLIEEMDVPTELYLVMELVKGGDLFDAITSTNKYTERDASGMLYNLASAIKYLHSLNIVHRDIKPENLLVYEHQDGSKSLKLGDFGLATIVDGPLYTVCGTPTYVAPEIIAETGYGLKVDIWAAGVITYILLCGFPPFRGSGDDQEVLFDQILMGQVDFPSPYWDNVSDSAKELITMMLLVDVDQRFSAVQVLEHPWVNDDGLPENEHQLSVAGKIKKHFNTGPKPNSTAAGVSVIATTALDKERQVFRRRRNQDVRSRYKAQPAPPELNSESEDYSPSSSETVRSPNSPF
Chain of MAP kinase-activated protein kinase 5 (Q8IW41 whole entry): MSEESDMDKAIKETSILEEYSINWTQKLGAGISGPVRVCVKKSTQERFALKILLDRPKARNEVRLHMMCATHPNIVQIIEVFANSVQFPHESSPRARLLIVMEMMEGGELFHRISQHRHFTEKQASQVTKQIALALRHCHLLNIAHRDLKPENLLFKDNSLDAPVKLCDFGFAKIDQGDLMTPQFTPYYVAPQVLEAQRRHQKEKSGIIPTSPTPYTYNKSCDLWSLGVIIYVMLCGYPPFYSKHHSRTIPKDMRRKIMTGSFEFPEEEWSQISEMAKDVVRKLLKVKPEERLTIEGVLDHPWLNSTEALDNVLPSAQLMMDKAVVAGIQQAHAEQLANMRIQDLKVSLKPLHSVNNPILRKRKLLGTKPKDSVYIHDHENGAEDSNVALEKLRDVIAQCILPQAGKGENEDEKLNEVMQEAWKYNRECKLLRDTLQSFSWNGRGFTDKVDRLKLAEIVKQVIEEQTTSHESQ
Chain of Dual specificity protein phosphatase 3 (P51452 whole entry): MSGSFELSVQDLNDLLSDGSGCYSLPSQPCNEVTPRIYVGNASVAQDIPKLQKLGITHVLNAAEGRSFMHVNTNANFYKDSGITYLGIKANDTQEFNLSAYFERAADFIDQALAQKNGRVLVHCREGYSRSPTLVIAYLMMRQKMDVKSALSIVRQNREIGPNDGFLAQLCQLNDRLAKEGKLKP
Chain of Tyrosine-protein kinase Blk (P51451 whole entry): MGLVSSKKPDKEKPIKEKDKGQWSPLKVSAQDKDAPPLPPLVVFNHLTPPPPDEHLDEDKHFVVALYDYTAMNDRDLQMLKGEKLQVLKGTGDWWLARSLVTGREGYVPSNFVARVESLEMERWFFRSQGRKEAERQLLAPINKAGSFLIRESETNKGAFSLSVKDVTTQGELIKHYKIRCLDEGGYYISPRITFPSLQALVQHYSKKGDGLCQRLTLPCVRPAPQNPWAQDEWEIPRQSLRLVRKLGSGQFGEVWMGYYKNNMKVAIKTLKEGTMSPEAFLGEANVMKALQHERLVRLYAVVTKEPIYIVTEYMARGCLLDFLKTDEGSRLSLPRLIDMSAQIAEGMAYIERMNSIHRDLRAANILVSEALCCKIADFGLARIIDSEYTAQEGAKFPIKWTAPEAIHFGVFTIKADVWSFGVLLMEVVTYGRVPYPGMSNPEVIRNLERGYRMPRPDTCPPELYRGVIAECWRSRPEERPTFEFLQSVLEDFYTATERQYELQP
Chain of Intestinal-type alkaline phosphatase (P09923 whole entry): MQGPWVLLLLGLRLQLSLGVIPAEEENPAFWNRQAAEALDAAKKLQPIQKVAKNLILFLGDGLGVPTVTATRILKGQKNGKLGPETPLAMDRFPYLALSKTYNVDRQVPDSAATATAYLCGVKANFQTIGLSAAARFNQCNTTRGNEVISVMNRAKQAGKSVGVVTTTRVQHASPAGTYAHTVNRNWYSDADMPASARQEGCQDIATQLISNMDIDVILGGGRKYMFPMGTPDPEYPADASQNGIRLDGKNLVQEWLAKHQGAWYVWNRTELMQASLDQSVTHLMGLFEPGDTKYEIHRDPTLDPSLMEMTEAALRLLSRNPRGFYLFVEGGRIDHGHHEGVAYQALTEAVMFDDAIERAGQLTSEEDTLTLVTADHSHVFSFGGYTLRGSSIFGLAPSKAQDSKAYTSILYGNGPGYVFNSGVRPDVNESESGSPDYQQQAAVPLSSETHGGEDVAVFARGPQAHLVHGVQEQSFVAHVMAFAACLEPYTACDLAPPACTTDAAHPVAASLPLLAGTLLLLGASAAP

Structure (SMILES): C=CCNC1=C(Cl)C(=O)c2ccccc2C1=O
AC50 [1]: 4580 nM (active)
AC50 [2]: 3820 nM (active)

Structure (SMILES): CS(=O)(=O)c1ccc2c(c1)SC1=NC(=O)/C(=C/c3ccc(O)c(O)c3)C(=N)N12
IC50 [3]: 10400 nM (active)
EC50 [4]: 61000 nM (active)

Structure (SMILES): CCOC(=O)C(C(=O)OCC)c1cc(Br)c2noc3c2c1C(=O)c1ccccc1-3
EC50 [5]: 10200 nM (active)
EC50 [6]: > 260000 nM (inconclusive)
IC50 [7]: 47700 nM (active)

Ki [8]: 1260 nM (active)
Ki [9]: > 2000 nM (inactive)
Ki [10]: 1260 nM (active)
Ki [11]: > 1260 nM (inactive)
Ki [12]: 1260 nM (active)
Ki [13]: 126 nM (active)
Ki [14]: 398 nM (active)
Ki [15]: 100 nM (active)
Ki [16]: 1000 nM (active)
Ki [17]: 1000 nM (active)
Ki [18]: 5010 nM (active)
Ki [19]: 158 nM (active)
Ki [20]: 1260 nM (active)
Ki [21]: 398 nM (active)
Structure (SMILES): COc1ccc(C(=O)Nc2n[nH]c3ccc(-c4cn(Cc5ccccc5)nn4)cc23)cc1OC
